Broadly, the GI50 is the concentration at which growth is held to half of that of the control.

Some test systems named below: 786-0; ACHN; HOP-62; HT-29; KM12; LOX IMVI; MDA-MB-435; Malme-3M; OVCAR-4; PC-3; RPMI-8226; SF-268; SK-MEL-5; SNB-75; U-251; UACC-257; UACC-62; A498; MCF7.
Experiment in all cases: DTP human tumour cell line panel, 48 h

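Cells were grown in 96-well plates and exposed to each compound for 48 hours at five concentrations; endpoints were interpolated linearly between bracketing concentrations, or set to the highest concentration if not reached. GI50 is the concentration that inhibits growth by half.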 Active and inactive are the calls of the source. No stated cut-off is given here; in the data, active = GI50 up to about 1.1 µM and inactive = higher. Some results are limits rather than exact numbers.

Turning to `CCOC(=O)C(C)(Cc1ccc(O)cn1)NC(=O)c1ccccc1` (configuration not stated), the GI50 with 786-0, in the test on ACHN, in the test on HOP-62, in the test with HT-29, in the test with KM12 and in the test on LOX IMVI was > 100 µM (inactive) throughout. In addition, the GI50 with MDA-MB-435, with Malme-3M, with OVCAR-4, in the test on PC-3, in the test with RPMI-8226 and with SF-268 was > 100 µM (inactive) throughout. Moreover, the GI50 with SK-MEL-5 is > 100 µM (inactive); with SNB-75, 80.4 µM (inactive); in the test with U-251, > 100 µM (inactive); in the test with UACC-257, > 100 µM (inactive); with UACC-62, > 100 µM (inactive).

In the case of `CC12CCCCC1C(=O)C2(Cl)Cl` (configuration not stated), the GI50 with 786-0 is 1.83 µM (inactive); in the test with A498 it was 3.94 µM (inactive); in the test with ACHN it was 2.51 µM (inactive); in the test with HOP-62 it was 1.6 µM (inactive); in the test with HT-29 it was 1.3 µM (inactive); with KM12, 1.79 µM (inactive). Further, the GI50 in the test on LOX IMVI was 2.64 µM (inactive); in the test on Malme-3M it was 1.4 µM (inactive); with OVCAR-4, 3.49 µM (inactive); with RPMI-8226, 1.31 µM (inactive); in the test on SF-268, 2.7 µM (inactive); in the test with SK-MEL-5, 1.83 µM (inactive). Besides, the GI50 with SNB-75 is 3.34 µM (inactive); with U-251, 2.21 µM (inactive); in the test with UACC-257, 2.06 µM (inactive); in the test with UACC-62 it was 2.2 µM (inactive).

Take `O=C(CSc1nc2ccc(I)cc2c(=O)n1Cc1ccccc1)NN1C(=O)CCC1=O`: the GI50 is 52.7 µM (inactive) in the test with 786-0; 18.2 µM (inactive) with ACHN; 54.5 µM (inactive) with HOP-62; 48.6 µM (inactive) in the test on HT-29; 37.2 µM (inactive) in the test on KM12; 59.3 µM (inactive) with LOX IMVI. The GI50 is 41.5 µM (inactive) in the test with MCF7; 64.1 µM (inactive) in the test on MDA-MB-435; 21.5 µM (inactive) with OVCAR-4; 30.1 µM (inactive) in the test with PC-3; 37.7 µM (inactive) in the test with RPMI-8226; 39.1 µM (inactive) in the test on SF-268. For the same molecule, the GI50 with SK-MEL-5 is 48.4 µM (inactive); in the test on SNB-75, 36.3 µM (inactive); with U-251, 41.2 µM (inactive); in the test on UACC-257, 45 µM (inactive); in the test with UACC-62 it was 55.7 µM (inactive).

Consider `COc1ccc(C(=O)/C=C/c2ccc(OCCCOc3ccc(/C=C/C(=O)c4ccc(OC)c(OC)c4)cc3)cc2)cc1OC`, for which the GI50 with 786-0, with ACHN, in the test with HOP-62, with HT-29, in the test on KM12 and with MCF7 was > 100 µM (inactive) each time. In addition, the GI50 with MDA-MB-435, with OVCAR-4, in the test with PC-3, in the test with RPMI-8226, in the test on SF-268 and in the test on SK-MEL-5 was > 100 µM (inactive) each time. Moreover, the GI50 in the test with SNB-75, in the test on U-251, in the test on UACC-257 and with UACC-62 was > 100 µM (inactive) each time.

Turning to `CCSCC(=O)N1CCc2c([nH]c3ccccc23)C1=O`, the GI50 with 786-0, in the test on ACHN, in the test on HOP-62, in the test with HT-29, with KM12 and in the test on LOX IMVI was > 100 µM (inactive) each time. Also, the GI50 in the test on MCF7 is 96.6 µM (inactive); in the test with MDA-MB-435, > 100 µM (inactive); in the test with Malme-3M it was > 100 µM (inactive); in the test with OVCAR-4 it was > 100 µM (inactive); in the test on PC-3, > 100 µM (inactive); in the test on SF-268, > 100 µM (inactive). Moreover, the GI50 is > 100 µM (inactive) in the test on SK-MEL-5; 78 µM (inactive) in the test with SNB-75; > 100 µM (inactive) in the test on U-251; 71.4 µM (inactive) with UACC-257; 97.5 µM (inactive) with UACC-62.

`CC(N/N=C(\S)N1CCN(c2ccccn2)CC1)c1cccc[n+]1[O-]` (configuration not stated): the GI50 was 7.71 µM (inactive) in the test on 786-0; 6.01 µM (inactive) in the test with ACHN; 67.3 µM (inactive) with HOP-62; 0.661 µM (active) in the test on HT-29; 52.4 µM (inactive) with KM12; 8.17 µM (inactive) in the test with LOX IMVI. The GI50 in the test on MCF7 was 13.2 µM (inactive); in the test on MDA-MB-435 it was 25.3 µM (inactive); in the test on OVCAR-4, 14 µM (inactive); in the test on PC-3 it was 15.3 µM (inactive); with SF-268, 22.8 µM (inactive); in the test with SK-MEL-5, 12.5 µM (inactive). In addition, the GI50 is 48.6 µM (inactive) with SNB-75, 12.8 µM (inactive) in the test with U-251, 30.9 µM (inactive) with UACC-257 and 2.95 µM (inactive) with UACC-62.

Regarding `COc1ccc2nc3n(c2c1)C(=O)c1ccccc1-3`, the GI50 with 786-0, in the test with ACHN, with HOP-62, in the test on HT-29, in the test on KM12 and with MCF7 was > 100 µM (inactive) each time. In addition, the GI50 in the test with Malme-3M, in the test with OVCAR-4, in the test with PC-3, in the test with RPMI-8226, in the test with SF-268 and with SK-MEL-5 was > 100 µM (inactive) each time. In addition, the GI50 with SNB-75, with U-251, in the test on UACC-257 and in the test on UACC-62 was > 100 µM (inactive) each time.

For the molecule `CC(CCC(=O)O)(c1ccc(O)cc1)c1ccc(O)cc1`, the GI50 with 786-0, in the test with A498, in the test on ACHN, with HOP-62, with HT-29 and in the test on KM12 was > 100 µM (inactive) in each case. Further, the GI50 in the test with LOX IMVI, in the test on MDA-MB-435, with Malme-3M, in the test with OVCAR-4, in the test with PC-3 and in the test with SF-268 was > 100 µM (inactive) throughout. The GI50 in the test with SK-MEL-5, with U-251, in the test with UACC-257 and in the test on UACC-62 was > 100 µM (inactive) in each case.

With `CC1C(c2ccc3c(c2)OCO3)c2cc3c(cc2OC1N1CCCC1)OCO3` (configuration not stated), the GI50 with 786-0 was 45.5 µM (inactive); with ACHN it was 29.3 µM (inactive); in the test on HOP-62, 49.5 µM (inactive); in the test with HT-29, 31 µM (inactive); in the test with KM12, 37.7 µM (inactive); in the test with LOX IMVI, 34.8 µM (inactive). Besides, the GI50 was 33.1 µM (inactive) with MCF7; 5.52 µM (inactive) in the test with MDA-MB-435; 32.9 µM (inactive) in the test with PC-3; 29.2 µM (inactive) with RPMI-8226; 23.1 µM (inactive) in the test with SF-268; 17.7 µM (inactive) in the test with SK-MEL-5. In addition, the values for the GI50 with SNB-75, in the test with UACC-257 and in the test on UACC-62 were 15.1 µM (inactive), 34.5 µM (inactive) and 53.6 µM (inactive), respectively.

Regarding `[N-]=[N+]=Nc1c(Cc2ccccc2)c(=O)oc2ccccc12`, the GI50 in the test with 786-0 was 40.6 µM (inactive); in the test on ACHN it was 38.2 µM (inactive); with HOP-62, 20.7 µM (inactive); with HT-29, 21.7 µM (inactive); with LOX IMVI it was 14.2 µM (inactive); in the test with MCF7, 32.6 µM (inactive). In addition, the GI50 was 22.3 µM (inactive) in the test on MDA-MB-435; 38.3 µM (inactive) with Malme-3M; 32.4 µM (inactive) with OVCAR-4; 22.9 µM (inactive) in the test on PC-3; 33.2 µM (inactive) with RPMI-8226; 25.9 µM (inactive) with SF-268. Moreover, the GI50 was 2.67 µM (inactive) in the test with SK-MEL-5; 28.6 µM (inactive) with SNB-75; 24.4 µM (inactive) in the test on U-251; 45.8 µM (inactive) in the test with UACC-257; > 10 µM (inactive) in the test with UACC-62.

As to `COC(=O)c1c(OC)cc2cc3c(c(O)c2c1C)C(=O)C1(O)C(=O)C=C(OC)C(OC(=O)CC(C)N)=C1C3=O` (configuration not stated), the GI50 in the test on 786-0 was 13.6 µM (inactive); in the test on ACHN, 8.65 µM (inactive); in the test on HOP-62, 29 µM (inactive); with HT-29, 4.88 µM (inactive); with KM12, 5.64 µM (inactive); with LOX IMVI, 8.49 µM (inactive). Besides, the GI50 was 15.6 µM (inactive) in the test on MCF7; 41.2 µM (inactive) in the test on MDA-MB-435; 18.3 µM (inactive) in the test on OVCAR-4; 20.9 µM (inactive) in the test with PC-3; 7.6 µM (inactive) in the test on RPMI-8226; 16.5 µM (inactive) in the test on SF-268. In addition, the GI50 in the test with SK-MEL-5 is 26.9 µM (inactive); with SNB-75, 2.54 µM (inactive); with U-251, 33.5 µM (inactive); in the test on UACC-257, 19.4 µM (inactive); with UACC-62, 17.1 µM (inactive).

Turning to `COC(=O)CSc1cc(Cl)c(C)cc1S(=O)(=O)Nc1n[nH]c(N)n1`, the GI50 in the test on 786-0, in the test with A498, in the test on ACHN, in the test with HOP-62, in the test on HT-29 and in the test with KM12 was > 10 µM (inactive) each time. Further, the GI50 with LOX IMVI, in the test with MCF7, in the test with Malme-3M, in the test on OVCAR-4, with PC-3 and in the test on RPMI-8226 was > 10 µM (inactive) in each case. Besides, the GI50 with SF-268, with SK-MEL-5, with SNB-75, in the test with U-251 and with UACC-257 was > 10 µM (inactive) each time.
